{"source": "patent US7045606B2", "about": "“Bifunctional chelating agent for actinium” (European Community, priority 2001, dated 2006)", "assay": "complexation properties of chelating agents with 225Ac", "assay_type": "physicochemical", "details": "compared with the non-functionalised chelating agents EDTA, DTPA, DOTA, PEPA, HEHA, HOHEC and EDTMP", "protocol": "Different non-functionalised chelating agents (commercially available or readily synthesised in the laboratory) bearing aminocarboxylate groups (EDTA, DTPA, DOTA, PEPA, HEHA and HOHEC) or aminophosphonate groups (EDTMP) were tested for their complexation properties with ^225Ac. […] Polyaza polycarboxylic macrocycles are known to form thermodynamically stable complexes with large metal ions such as actinides and lanthanides."}
{"smiles": "O=C(O)CN1CCN(CC(=O)O)CCN(CC(=O)O)CCN(CC(=O)O)CCN(CC(=O)O)CCN(CC(=O)O)CCN(CC(=O)O)CCN(CC(=O)O)CC1", "note": "[HOTEC, 1,4,7,10,13, 16,19,22-octacarboxylmethyl-1,4,7,10,13,16,19,22-octaazacyclotetracosane]", "values": [{"measurement": "complexation properties with ^225Ac", "value": "best candidate"}]}
